# From patent US20190262323A1, “COMPOSITIONS AND METHODS FOR TREATING NEURODEGENERATIVE DISORDERS” (GEORGETOWN UNIVERSITY, priority 2016, published 2019)
# Tests used:
# APP mice = assay: Morris water maze; assay type: in vivo; details: 2.5 mg/kg for three weeks; by day three of training; average of three trials
# Procedure: APP mice treated with either DMSO or 2.5 mg/kg LCB-03-0110 for 3 weeks were trained three times a day to find a submerged platform using visuospatial cues inside the apparatus. […] The mouse was allowed up to 60 seconds to find the platform, after which it would be removed from the apparatus after 5 seconds on the platform. If the animal was unable to find the platform, it was placed on the platform for 20 seconds. […] Data are shown as an average of three trials.
# Tau [pS396] = assay: Human Tau [pS396] solid phase sandwich ELISA on brain tissue homogenates from treated transgenic APP mice; assay type: in vivo
# Procedure: (§1) Transgenic mice harboring the Swedish, Dutch, and Iowa mutation for human amyloid beta-precursor protein were treated with intraperitoneal (IP) injections of 10 mg/kg, 5 mg/kg, 2.5 mg/kg, 1.25 mg/kg of LCB 03-0110 or 30 μL of dimethylsulfoxide (DMSO) every day for 1 week. LCB 03-0110 is a potent inhibitor of discoidin domain receptor 2 (DDR2) family tyrosine kinases. All animal experiments were conducted in full compliance with the recommendations of Georgetown University Animal Care and Use Committee (GUAUC). Fifteen mice were used for brain and blood extractions, and fifteen mice were used for drug treatments. Four transgenic APP mice were treated with DMSO, four transgenic APP mice were treated with 10 mg/kg of LCB 03-0110, four transgenic APP mice were treated with 5 mg/kg of LCB 03-0110, four transgenic APP mice were treated with 2.5 mg/kg of LCB 03-0110, and three transgenic APP mice were treated with 1.25 mg/kg of LCB 03-0110. Seven transgenic APP mice were treated with DMSO, and 7 transgenic APP mice were treated with 2.5 mg/kg of LCB.
# (§2) Animals were deeply anesthetized with a mixture of Xylazine and Ketamine (1:8). Whole blood (500 μl) was collected via cardiac puncture and centrifuged at 2000×g to precipitate blood cells. The serum was collected for mass spectrometric analysis. To wash out the remaining blood from vessels and reduce contamination, animals were perfused with 25 ml of 1X phosphate buffered saline (PBS) for 5 min and the brains were collected. A hemisphere was frozen and stored at −80° C. for mass spectrometry studies and the other hemisphere was immediately homogenized in 2.0 ml lysis buffer (containing protease and phosphatase inhibitors) and labeled as a soluble protein fraction.
# Human Tau [pS396] solid phase sandwich ELISA was performed on brain tissue homogenates from transgenic APP mice treated with LCB 03-0110 at 10 mg/kg, 5 mg/kg, 2.5 mg/kg, and 1.25 mg/kg. A monoclonal Tau capture antibody was coated onto micro-wells. 50 μl of soluble lysate was added to each well, allowing the Tau [pS396] antigen to bind to the immobilized capture antibody, and incubated for two hours at room temperature. After the two hour incubation, samples were washed and incubated with 100 μl of rabbit monoclonal tau [pS396] detection antibody and incubated for one hour at room temperature. Following extensive washing, a 100 μl of horseradish peroxidase labeled anti-rabbit IgG was added to each well and incubated for thirty minutes at room temperature. Samples were washed to remove all unbound enzyme. […] The magnitude of the absorbance for this developed color was proportional to the quantity of Tau […] proteins in the brain tissue homogenates. […] All statistics were performed using ANOVA with Tukey multiple comparison post-test and data were expressed as Mean±SD.
# [1] = Pharmacokinetic analysis of brain and serum by mass spectrometry; assay type: in vivo, C57BL/6 mice
# Procedure: C57BL/6 mice received a single IP dose of 1.25, 2.5, 5, or 10 mg/kg LCB, and brain and serum were collected at 2, 4, 6, or 8 hours (n=3 per dose and time point). Animals injected with vehicle (DMSO) were used for background subtraction. Drug levels were determined at the Georgetown University Proteomics and Metabolomics Shared Resources (PMSR). Stock solution for LCB-03110 [(approximately 1 mg/mL each) was prepared in methanol/dichloromethane (50:50). The serial dilutions for each of the standards were produced for the study separately in methanol/HPLC grade water (50:50). Preparation of the calibration curve standards and quality samples (QC) was performed by mixing the stock solutions in blank samples. The final calibration concentration for LCB-03110 ranged from 0.1 ng/mL to 100 ng/mL. The QC concentrations were 30 ng/mL, 3 ng/mL and 0.3 ng/mL, respectively. Serum and brain samples were stored at −80° C. and then thawed to room temperature prior to preparation. The thawed serum samples (20 μL) were transfused to a tube containing 100 μL of water. The 500 μL extraction solvent and acetonitrile/methanol (50:50) was added to the sample. The mixture was vortexed and incubated on ice for 20 minutes to accelerate protein precipitation. After incubation, the samples were vortexed again and centrifuged at 13,000 rpm for 20 minutes at 4° C. The supernatant was then collected and transferred to a new tube, was dried using speed vac, and reconstituted in 200 μL of methanol/water (50:50). The mixture was spun again at 13,000 rpm for 20 minutes at 4° C. The supernatant was then collected into a mass spec sample tube cap and run in the mass spectrometer. For brain, a small section of the thawed brain sample from each animal was transferred to a flat bottom tube. 200 μL of methanol/water (90:10) was added, and the tissue was homogenized. Acetonitrile was then added to the mixture facilitating protein precipitation. The mixture was then incubated on ice for 10 minutes. After incubation, the samples were vortexed and centrifuged at 13,000 rpm for 20 minutes at 4° C. The supernatant was then collected and transferred to a new tube, dried using speed vac, and reconstituted in 200 μL of methanol/water (50:50). The mixture was centrifuged at 13,000 rpm for 20 minutes at 4° C. The supernatant was collected into a mass spec sample tube cap and run in the mass spectrometer. The samples were resolved on an Acquity UPLC BEH C18 […], 2.1×50 mm column online with a triple quadrupole mass spectrometer (Xevo-TQ-S, Waters Corporation, USA) operating in the multiple reaction monitoring (MRM) mode. The sample cone voltage and collision energies were optimized for both analytes to obtain maximum ion intensity for parent and daughter ions using “Intelli Start” feature of MassLynx software (Waters Corporation, USA). The instrument parameters were optimized to gain maximum specificity and sensitivity of ionization for the parent [m/z=438.25] and daughter ions [m/z=357.33]. Signal intensities from all MRM Q1/Q3 ion pairs for analytes were ranked to ensure selection of the most intense precursor and fragment ion pair for MRM-based quantitation. […] Analysis was performed with a six to eight-point calibration curve, the sample queue was randomized and solvent blanks were injected to assess sample carryover. MRM data were processed using TargetLynx 4.1. The relative quantification values of analytes were determined by calculating the ratio of peak areas of transitions of samples normalized to the peak area of the internal standard.
# cytokines and chemokines = assay: MILLIPLEX Mouse Cytokine/Chemokine Magnetic Bead Panel; assay type: in vivo, transgenic APP mice; details: 2.5 mg/kg or 1.25 mg/kg
# Procedure: as §1
# (§3) MILLIPLEX®: Cytokines and chemokines were measured in serum and brain with the Mouse Cytokine/Chemokine Magnetic Bead Panel (Cat MCYTOMAG-70K, EMD Millipore). Human amyloid beta and total tau was measured in brain using the Human Amyloid Beta and Tau Panel (Cat HNABTMAG-68K, EMD Millipore). AKT/mTOR signaling cascade phosphoproteins were measured using the Akt/mTOR Phosphoprotein Magnetic Bread 11-Plex Kit (Cat 48-611MAG, EMD Millipore). Assays were performed according to the manufacturer's protocols.
# [2] = test system: beta-amyloid, synuclein and Tau; assay: LCB-03-0110 tested in cell culture: levels of misfolded proteins; assay type: cell-based; details: low doses (0.1-3 nM)
# Procedure: shRNAs were designed to specifically knock down DDR1 and DDR2 receptors, and study their effects on clearance of misfolded protein accumulation in neurodegeneration. […] These shRNAs were then injected into animal models in vivo. […] A known DDR inhibitor, LCB-03-0110, was tested in cell culture. Low doses (0.1-3 nM) of LCB-03-0110 reduced the levels of beta-amyloid, synuclein and Tau in cell culture.
# [3] = test system: Beclin, Atg7, Atg12, LC3-I, LC3-II; assay: Western blot of soluble brain fractions of treated APP mice: autophagy markers; assay type: in vivo, transgenic APP mice; details: 1.25 or 2.5 mg/kg
# Procedure: as §1
# Brain tissues from transgenic APP mice treated with LCB 03-0110 at 10 mg/kg, 5 mg/kg, 2.5 mg/kg, and 1.25 mg/kg were homogenized in 1×STEN buffer, centrifuged at 10,000×g for 20 min at 4° C., and the supernatants containing the soluble fraction were collected. […]
# phosphorylated mTOR = assay: MILLIPLEX Akt/mTOR phosphoprotein analysis; assay type: in vivo, transgenic APP mice; details: mean fluorescent intensity; 1.25 or 2.5 mg/kg
# Procedure: as §1, with “Seven transgenic APP mice were treated with DMSO, and 7 transgenic APP mice were treated with 2.5 mg/kg of LCB.” left out
# as §3, with “Assays were performed according to the manufacturer's protocols.” left out
# human amyloid beta = assay: MILLIPLEX Human Amyloid Beta and Tau Panel, soluble and insoluble brain fractions; assay type: in vivo, transgenic APP mice; details: 2.5 mg/kg daily for 3 weeks
# Procedure: as §1, with “Transgenic mice harboring the Swedish, Dutch, and Iowa mutation for human amyloid beta-precursor protein were treated with intraperitoneal (IP) injections of 10 mg/kg, 5 mg/kg, 2.5 mg/kg, 1.25 mg/kg of LCB 03-0110 or 30 μL of dimethylsulfoxide (DMSO) every day for 1 week.” left out
# as §2
# After removing the soluble supernatant, the tissue pellet was washed with 1×STEN buffer. […]
# as §3, with “Assays were performed according to the manufacturer's protocols.” left out
# [4] = test system: APP/Aβ, Aβ42, p-tau (AT180); assay: Western blot of soluble brain fractions of treated APP mice: amyloid and p-tau; assay type: in vivo, transgenic APP mice
# Procedure: as §1
# Brain tissues from transgenic APP mice treated with LCB 03-0110 at 10 mg/kg, 5 mg/kg, 2.5 mg/kg, and 1.25 mg/kg were homogenized in 1×STEN buffer, centrifuged at 10,000×g for 20 min at 4° C., and the supernatants containing the soluble fraction were collected. Soluble fractions were probed with mouse monoclonal anti-6E10 (1:1000), rabbit polyclonal anti-Ab42 (1:1000), mouse monoclonal anti-AT180 (1:1000), rabbit polyclonal anti-Beclin-1 (1:1000), rabbit polyclonal anti-Atg7 (1:1000), rabbit polyclonal anti-Atg12 (1:1000), rabbit polyclonal anti-LC3B (1:1000) and rabbit polyclonal anti-actin (1:1000).
# [5] = brain response values (Area/IS Area), single IP dose
smiles,measurement,setting,value
"Oc1cccc(Nc2ccnc3cc(-c4cccc(CN5CCOCC5)c4)sc23)c1 [LCB 03-0110, 3-(2-(3-(morpholinomethyl)phenyl)thieno[3,2-b]pyridine-7-ylamino)phenol]",reduction in the average time to find a submerged platform,APP mice,30%
same,total Tau levels,"Tau [pS396]; 10 mg/kg or less, 12-15 month old APP mice, after one week",does not alter
same,level of phosphorylated Tau (pS396),"Tau [pS396]; brain homogenate, 10 mg/kg or less (10, 5, 2.5, 1.25 mg/kg) IP daily for 1 week, vs DMSO",reduces
same,ratio of Tau (phosphorylated Tau (pS396)/total Tau),"Tau [pS396]; brain homogenate, 10 mg/kg or less IP daily for 1 week, vs DMSO",reduces
same,reducing the ratio of Tau: lower dosages compared with higher dosages,Tau [pS396]; less than 2.5 mg/kg versus greater than 5.0 mg/kg,more effective
same,Tmax of the plasma:brain ratio,[1]; 2.5 mg/kg,about 2 hours
same,"plasma:brain ratio, comparison of doses","[1]; 2.5 mg/kg, among 10, 5, 2.5 and 1.25 mg/kg",highest plasma:brain ratio
same,"drug concentration in the brain, comparison of doses","[1]; 10 mg/kg, among 10, 5, 2.5 and 1.25 mg/kg",highest drug concentration in the brain
same,time at which washed out completely from the brain,[1]; [5],about 4 hours
same,time of peak in the brain,[1]; [5],about 1 hour
same,blood brain barrier penetration,"[1]; single IP dose 1.25, 2.5, 5 or 10 mg/kg",penetrates the blood brain barrier
same,RANTES levels,cytokines and chemokines,does not alter
same,VEGF-A levels,cytokines and chemokines,reduces VEGF-A to control levels
same,brain inflammation,cytokines and chemokines,reduced
same,granulocyte colony-stimulating factor (G-CSF),cytokines and chemokines,reductions
same,granulocyte-macrophage colony-stimulating factor (GM-CSF),cytokines and chemokines,reductions
same,macrophage colony-stimulating factor (M-CSF),cytokines and chemokines,reductions
same,macrophage inflammatory factor 1 alpha (MIP-1α),cytokines and chemokines,reductions
same,macrophage inflammatory factor 1 beta (MIP-1β),cytokines and chemokines,reductions
same,macrophage inflammatory protein 1 (MIP-1),cytokines and chemokines,reductions
same,macrophage inflammatory protein 2 (MIP-2),cytokines and chemokines,reductions
same,levels of Tau,[2],reduced
same,levels of beta-amyloid,[2],reduced
same,levels of synuclein,[2],reduced
same,"autophagy and autophagosomes (Beclin, Atg7, Atg12, LC3-I, LC3-II Western blot)",[3],stimulates autophagy and clears autophagosomes
same,"level of LC3-II/LC3-I, densitometry analysis of LC3-II levels",[3]; n=5,significantly reduces
same,phosphorylated mTOR levels,phosphorylated mTOR,without altering
same,soluble human Aβ40 levels,human amyloid beta; brain,significantly reduced
same,soluble human Aβ42 levels,human amyloid beta; brain,significantly reduced
same,insoluble human Aβ42 levels,human amyloid beta; brains of APP mice,significantly reduced
same,levels of p-tau (AT180) (Western blot),"[4]; 1.25 or 2.5 mg/kg daily, after one week",reduced
same,levels of APP/Aβ (Western blot),"[4]; 1.25 or 2.5 mg/kg daily, after one week, actin loading control",reduced
same,"levels of amyloid, densitometry analysis","[4]; n=5, 3 mutant APP mice, about 2.5 mg/kg or less",significantly reduced
same,beta-amyloid (Aβ42) levels (Western blot),"[4]; soluble brain fraction, 1.25 or 2.5 mg/kg daily, one week",effective in reducing
